Measurements: publication PMC3527451, “A Pilot Randomized, Placebo Controlled, Double Blind Phase I Trial of the Novel SIRT1 Activator SRT2104 in Elderly Volunteers” (PLoS ONE, 2012)

Legend:
[1] = system: elderly male and female volunteers; assay: MRI of subcutaneous and visceral adipose tissue; format: in vivo, human; conditions: active treatment relative to placebo
Protocol: Magnetic Resonance Imaging (MRI) was also carried out on a clinical Siemens 3T Tim Trio (Siemens Healthcare, Erlangen, Germany). The torso was imaged using the 6-channel spine array and two 4-channel body array coils. The data were acquired using a 3D spoiled gradient echo sequence with partial Fourier acquisitions (VIBE). The imaging volume consisted of contiguous 3D slabs (voxel size of 1.4×1.4×5 mm3) acquired in a single 15 s end-expiration breath-hold (repetition time = 7 ms; echo times TEs = 2.45, 3.67 ms; flip angle = 10°; 450 mm field-of-view; GRAPPA factor 2). […] Fat-only images in the abdomen were manually segmented into intra-abdominal adipose tissue (IAT) and abdominal subcutaneous adipose tissue (SAT). The abdominal area was defined by using anatomical landmarks (top of the femoral heads to the bottom of the right lung). All images were anonymized and blinded to time point, but not to subject in order to facilitate matching anatomical landmarks, and sent to a third party (Vardis Group Inc, London), who derived the adipose tissue volumes using Slice-O-Matic (Tomovision, Montreal, Canada) software. Analysis of compartmental fat distribution was performed for subcutaneous adipose tissue (SAT), visceral adipose tissue (VAT), and the ratio of SAT:VAT, using an ANOVA model with treatment group as a factor.

[2] = system: CYP3A4; design: method as in ref 17, 18 (a number printed in a supplementary file, which may have a reference list of its own: not looked up in the article's list); conditions: cultured hepatocytes, at the concentrations tested; cited from earlier work

SMILES: Cc1nc(-c2cccnc2)sc1C(=O)Nc1ccccc1-c1cn2c(CN3CCOCC3)csc2n1 [SRT2104]
- subcutaneous (SAT) and visceral (VAT) adipose tissue volumes and VAT:SAT ratio [1]: No consistent changes from baseline
- induction of CYP3A4 [2]: not a significant inducer
